Assay results from US9970938B2, “Use of BUBR1 as a biomarker of drug response to furazanobenzimidazoles” (Basilea Pharmaceutica AG, priority 2011, dated 2018).

Columns and labels:
Type in all cases: cell-based, human
SKOV3 resistant 1 = experiment: Crystal Violet assay of BAL27862-resistant cell line versus parental line; settings: 72 hours incubation, Crystal Violet
From the text: (§1) BAL27862-resistant sublines of human non-small cell lung cancer (H460 ATCC reference HTB-177; A549 ATCC reference CCL-185), ovarian cancer (SKOV3 ATCC reference HTB-77) lines were generated by long-term selection in complete cell culture medium (RPMI-1640 containing 10% FCS; Sigma-Aldrich) by stepwise increasing concentrations of BAL27862. […] The resistant sublines were expanded at the highest tolerated BAL27862 concentration and subsequently frozen and stored in liquid nitrogen.
(§2) After medium was removed, cells were fixed and stained by adding 50 μl Crystal Violet Staining (0.2% Crystal Violet in 50% Methanol) per well. Plates were incubated for 1 hour at room temperature. Subsequently the stain was decanted and plates were washed 4 times with double-distilled water. Plates were air-dried for several hours. Stain was dissolved by adding 100 μl buffer (0.1 M Tris pH 7.5, 0.2% SDS, 20% Ethanol) per well and shaking the plates. Absorbance at 590 nm was measured using a SpectraMax M2e plate reader (Molecular Devices). Anti-proliferative IC50 values were calculated from concentration response curves using GraphPad Prism software. Resistance factors were calculated as a ratio of BAL27862 IC50 in the resistant line variant versus the IC50 in the parental line.

SKOV3 resistant 2 = experiment: as above; settings: 72 hours incubation, Crystal Violet
From the text: as §1, §2

H460 = experiment: as above; settings: 72 hours incubation, Crystal Violet
From the text: as §1, §2

A549 = experiment: as above; settings: 72 hours incubation, Crystal Violet
From the text: as §1, §2

A549 NSCLC cells = experiment: Immunofluorescent staining of microtubules in cultured cells; settings: for microtubule phenotype of mitotic or G2/M arrested cells: 24 hours treatment, anti-alpha-tubulin staining; for microtubule phenotype, agent added for the last 4 hours of 24 hours BAL27862 treatment: combination
Description: A549 human non-small cell lung cancer (NSCLC, ATCC reference number CCL-185) cells, HeLa cervical cancer cells (ATCC reference number CCL-2) and SKBR3 breast carcinoma cells (ATCC reference number HTB-30) were seeded at densities of 50% on round microscope coverslips and cultured for 24 hours in RPMI-1640 containing 10% FCS (also referred to as FBS) at 37° C., 5% CO2. Compounds to be tested were dissolved in DMSO. The cell culture medium was replaced with medium containing the diluted compound(s) (paclitaxel, vinblastine, colchicine and nocodazole were purchased from Sigma-Aldrich) or vehicle. After treatment, coverslips were washed and cells were fixed in methanol/acetone (1:1) for 5 minutes at room temperature and subsequently incubated in blocking buffer (0.5% BSA and 0.1% TX-100 in PBS) for 30 minutes at room temperature. Specimens were then incubated with anti-alpha-tubulin antibody (Sigma, 1:2000) for 1 hour at room temperature in blocking buffer. After several washing steps cells were incubated with AlexaFluor-488 goat-anti-mouse IgG (Molecular Probes, 1:3000) for 1 hour at room temperature followed by several washing steps with blocking buffer. Specimens were then mounted with ProLong Gold antifade (Molecular Probes), sealed with nail polish and examined with a Leica immunofluorescence microscope. Images were captured with a cooled CCD-camera and processed by ImageJ software.

[1] = system: tumour cells derived from patient-derived tumours from gastric and lung cancer; experiment: Colony outgrowth assay, all tumour models
Description: (§3) Single cell suspensions of patient-derived tumour xenografts (maintained in nude mice) were prepared. For colony outgrowth assays, cells were plated in soft agar in 24-well plates according to the assay introduced by Hamburger & Salmon (Primary bioassay of human tumour stem cells, Science, 1977, 197:461-463). 2.0E+04-6.0E+04 cells in 0.2 mL medium containing 0.4% agar were plated out on a bottom layer of 0.75% agar. Test compounds were applied in 0.2 mL culture medium. Every 24-well plate contained untreated controls and samples in triplicates. Cultures were incubated at 37° C. and 7.5% CO2 for 5-28 days. 24 hours prior to analysis, vital colonies were stained with a solution of metabolizable tetrazolium salt (Alley M C et al, Life Sci. 1982, 31:3071-3078) and were counted with an automatic image analysis system (Omnicon 3600, Biosys GmbH). Relative drug effects were expressed by the ratio of the mean number of colonies in the treated wells and the control wells. IC70-values were determined by plotting compound concentrations versus relative colony counts.

BAL27862-resistant cells = experiment: Crystal Violet assay of BAL27862-resistant cell lines, all lines
From the text: as §1, §2

GXF251 = experiment: Colony outgrowth assay, patient-derived tumour xenograft cells; design: key: S: BAL27862-sensitive tumour cells have IC70 values in the low nanomolar range; R: BAL27862-resistant tumour cells are defined by IC70 values >600 nanomolar; settings: Gastric
Description: as §3, with “GmbH).” for “GmbH). Relative drug effects were expressed by the ratio of the mean number of colonies in the treated wells and the control wells. IC70-values were determined by plotting compound concentrations versus relative colony counts.”
(§4) Relative drug effects were expressed by the ratio of the mean number of colonies in the treated wells and the control wells. IC70-values were determined by plotting compound concentrations versus relative colony counts.

LXFL529 = experiment: as above; design: key: S: BAL27862-sensitive tumour cells have IC70 values in the low nanomolar range; R: BAL27862-resistant tumour cells are defined by IC70 values >600 nanomolar; settings: Lung
Description: as §3, with “GmbH).” for “GmbH). Relative drug effects were expressed by the ratio of the mean number of colonies in the treated wells and the control wells. IC70-values were determined by plotting compound concentrations versus relative colony counts.”
as §4

GXF97 = experiment: as above; design: key: S: BAL27862-sensitive tumour cells have IC70 values in the low nanomolar range; R: BAL27862-resistant tumour cells are defined by IC70 values >600 nanomolar; settings: Gastric
Description: as §3, with “GmbH).” for “GmbH). Relative drug effects were expressed by the ratio of the mean number of colonies in the treated wells and the control wells. IC70-values were determined by plotting compound concentrations versus relative colony counts.”
as §4

LXFA629 = experiment: as above; design: key: S: BAL27862-sensitive tumour cells have IC70 values in the low nanomolar range; R: BAL27862-resistant tumour cells are defined by IC70 values >600 nanomolar; settings: Lung
Description: as §3, with “GmbH).” for “GmbH). Relative drug effects were expressed by the ratio of the mean number of colonies in the treated wells and the control wells. IC70-values were determined by plotting compound concentrations versus relative colony counts.”
as §4

Row | Structure (SMILES) | microtubule phenotype of mitotic or G2/M arrested cells (A549 NSCLC cells) | microtubule phenotype, agent added for the last 4 hours of 24 hours BAL27862 treatment (A549 NSCLC cells) | resistance or sensitivity to treatment, same ex vivo assay [1] | Sensitive (S)/Resistant (R), by IC70 in colony outgrowth (GXF251) | Sensitive (S)/Resistant (R), by IC70 in colony outgrowth (LXFL529) | Sensitive (S)/Resistant (R), by IC70 in colony outgrowth (GXF97) | Sensitive (S)/Resistant (R), by IC70 in colony outgrowth (LXFA629) | further results
1 | COc1cc2c(c(OC)c1OC)-c1ccc(OC)c(=O)cc1[C@@H](NC(C)=O)CC2 [Colchicine, colchicine] | mitotic microtubule phenotypes characteristic of these agents | no impact on the observed microtubule phenotype | – | – | – | – | – | Resistance factors (ratio of IC50 BAL27862-resistant cell line variant and IC50 parental cell line) (SKOV3 resistant 1): 2.0; Resistance factors (ratio of IC50 BAL27862-resistant cell line variant and IC50 parental cell line) (SKOV3 resistant 2): 2.8; Resistance factors (ratio of IC50 BAL27862-resistant cell line variant and IC50 parental cell line) (H460): 1.6; Resistance factors (ratio of IC50 BAL27862-resistant cell line variant and IC50 parental cell line) (A549): 0.9
2 | N#CCCNc1nonc1-c1nc2ccccc2n1CC(=O)c1ccc(N)nc1 [Compound C, 3-(4-{1-[2-(6-Amino-pyridin-3-yl)-2-oxo-ethyl]-1H-benzoimidazol-2-yl}-furazan-3-ylamino)-propionitrile] | highly reproducible and distinct microtubule phenotype | – | – | – | – | – | – | –
3 | CC(=O)O[C@H]1C(=O)[C@@]2(C)[C@H]([C@H](OC(=O)c3ccccc3)[C@]3(O)C[C@H](OC(=O)[C@H](O)[C@@H](NC(=O)c4ccccc4)c4ccccc4)C(C)=C1C3(C)C)[C@]1(OC(C)=O)CO[C@@H]1C[C@@H]2O [Paclitaxel, paclitaxel] | mitotic microtubule phenotypes characteristic of these agents | no impact on the observed microtubule phenotype | resistant | R (BAL27862-resistant tumour cells are defined by IC70 values >600 nanomolar) | R (BAL27862-resistant tumour cells are defined by IC70 values >600 nanomolar) | R (BAL27862-resistant tumour cells are defined by IC70 values >600 nanomolar) | R (BAL27862-resistant tumour cells are defined by IC70 values >600 nanomolar) | response of BAL27862-resistant cells versus parental (BAL27862-resistant cells): increased sensitivity
4 | Nc1ccc(C(=O)Cn2c(-c3nonc3N)nc3ccccc32)cc1 [Compound B, 2-[2-(4-Amino-furazan-3-yl)-benzoimidazol-1-yl]-1-(4-amino-phenyl)-ethanone] | highly reproducible and distinct microtubule phenotype | – | – | – | – | – | – | –
5 | CC[C@]1(O)C[C@@H]2CN(CCc3c([nH]c4ccccc34)[C@@](C(=O)OC)(c3cc4c(cc3OC)N(C)[C@H]3[C@@](O)(C(=O)OC)[C@H](OC(C)=O)[C@]5(CC)C=CCN6CC[C@]43[C@@H]65)C2)C1 [Vinblastine, vinblastine] | mitotic microtubule phenotypes characteristic of these agents | no impact on the observed microtubule phenotype | sensitive | S | S | S | S | –
6 | COC(=O)Nc1nc2ccc(C(=O)c3cccs3)cc2[nH]1 [Nocodazole, nocodazole] | mitotic microtubule phenotypes characteristic of these agents | no impact on the observed microtubule phenotype | – | – | – | – | – | –
